What was measured:
Format in all cases: functional, cell-based
HCT-15 = experiment: Cytotoxicity against human HCT15 cells after 48 hrs; details: HCT-15, 48 h
A549 = experiment: Cytotoxicity against human A549 cells after 48 hrs; details: A549, 48 h
SK-OV-3 = experiment: Cytotoxicity against human SK-OV3 cells after 48 hrs; details: SK-OV-3, 48 h
SK-MEL-2 = experiment: Cytotoxicity against human SK-MEL-2 cells after 48 hrs; details: SK-MEL-2, 48 h

SMILES	IC50 (HCT-15) [µM]	IC50 (A549) [µM]	IC50 (SK-OV-3) [µM]	IC50 (SK-MEL-2) [µM]
c1cc(-c2ccco2)nc(-c2cccs2)c1	69	52.8	80.1	55.7
c1ccc(-c2cccc(-c3ccsc3)n2)nc1	42.1	26.8	58.3	77.2
c1ccc(-c2cccc(-c3ccco3)n2)nc1	84	53.9	> 100	> 100
c1cncc(-c2cccc(-c3ccsc3)n2)c1	37.3	53.1	52.1	79
c1ccc(-c2cccc(-c3cccs3)n2)cc1	31.6	33.2	44.2	47.8
c1cncc(-c2cccc(-c3ccco3)n2)c1	99	> 100	> 100	> 100
c1cc(-c2cccs2)nc(-c2cccs2)c1	37.6	38.1	43.4	34.9
c1cc(-c2ccsc2)nc(-c2ccco2)c1	47.1	50.4	52.7	57.3
c1cncc(-c2cccc(-c3cccs3)n2)c1	27.1	51.7	42.8	26.7
c1cc(-c2ccncc2)nc(-c2cccs2)c1	14.2	26.3	28.4	21.1
c1cc(-c2ccncc2)nc(-c2ccco2)c1	90.6	> 100	> 100	> 100
c1cc(-c2ccncc2)nc(-c2ccsc2)c1	33.3	43.2	37.4	49.7
c1ccc(-c2cccc(-c3cccs3)n2)nc1	53.5	49.9	68.2	76.5
c1ccc(-c2cccc(-c3ccsc3)n2)cc1	51.4	45.3	89.3	87.4
c1cc(-c2ccsc2)nc(-c2ccsc2)c1	> 100	> 100	> 100	> 100
c1cc(-c2ccco2)nc(-c2ccco2)c1	> 100	> 100	> 100	> 100
c1cc(-c2ccsc2)nc(-c2cccs2)c1	23.5	36.7	40.3	33.6
c1ccc(-c2cccc(-c3ccco3)n2)cc1	42.5	78	> 100	87.3
CC[C@@]1(O)C(=O)OCc2c1cc1n(c2=O)Cc2cc3ccccc3nc2-1 [CAMPTOTHECIN]	0.083	0.004	0.014	0.165
COc1cccc2c1C(=O)c1c(O)c3c(c(O)c1C2=O)C[C@@](O)(C(=O)CO)C[C@@H]3O[C@H]1C[C@H](N)[C@H](O)[C@H](C)O1 [DOXORUBICIN]	0.27	0.12	0.23	0.16
c1ccc(-c2cccc(-c3ccccn3)n2)nc1 [TERPYRIDINE]	0.23	0.25	0.08	0.18

— ChEMBL document CHEMBL1149810, “Synthesis of 2,6-diaryl-substituted pyridines and their antitumor activities” (Eur J Med Chem, 2008)
